Reference: ChEMBL document CHEMBL3414556, “Targeting aldose reductase for the treatment of diabetes complications and inflammatory diseases: new insights and future directions” (J Med Chem, 2015)

How the values were obtained:
[1] = target: Aldo-keto reductase family 1 member B10 (Homo sapiens, UniProt O60218); assay: Inhibition of wild-type N-terminal 6-His tagged AKR1B10 (unknown origin) expressed in Escherichia coli BL21(DE3) assessed as pyridine-3-aldehyde reduction by spectrophotometry
[2] = target: T1, Aldo-keto reductase family 1 member B1 (Homo sapiens, UniProt P15121); assay: Inhibition of human AR by fluorescence assay
[3] = target: T1, Aldo-keto reductase family 1 member B1; assay: Inhibition of human AR

Sequence of Aldo-keto reductase family 1 member B10 (O60218 whole entry): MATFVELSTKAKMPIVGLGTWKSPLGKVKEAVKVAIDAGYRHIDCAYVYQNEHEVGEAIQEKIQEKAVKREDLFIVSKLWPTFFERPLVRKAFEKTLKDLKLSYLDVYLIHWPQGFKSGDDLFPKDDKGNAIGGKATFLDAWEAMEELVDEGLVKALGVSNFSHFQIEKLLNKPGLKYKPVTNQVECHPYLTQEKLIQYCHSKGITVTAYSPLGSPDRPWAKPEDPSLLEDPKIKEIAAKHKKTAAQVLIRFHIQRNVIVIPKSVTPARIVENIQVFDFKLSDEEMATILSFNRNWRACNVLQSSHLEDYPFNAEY

Row | SMILES | IC50 [1] | IC50 [2] | IC50 [3]
1 | O=C(O)Cc1ccccc1Nc1c(Cl)cccc1Cl [DICLOFENAC] | 1.9 µM |  | 
2 | O=C(O)c1ccccc1Nc1cccc(C(F)(F)F)c1 [FLUFENAMIC ACID] | 0.76 µM |  | 
3 | Cc1cccc(Nc2ccccc2C(=O)O)c1C [MEFENAMIC ACID] | 1.6 µM | 77 µM | 
4 | CC(=O)Oc1ccccc1C(=O)Nc1ncc([N+](=O)[O-])s1 [NITAZOXANIDE] |  |  | 8.22 µM
